Measured values as given in patent publication US8592421B2, “Cyclic bioisosters of purine system derivatives and a pharmaceutical composition based thereon” (priority 2003, dated 2013).

Tests used:
thrombocytes = assay: ADP-induced aggregation of thrombocytes in vitro (Born method, plasma enriched with thrombocytes); format: cell-based, rabbit; settings: 3-minute incubation, ADP 10^−5 M
Procedure: The aggregation of thrombocytes was studied by the Born method based on determination of the changes in the optical density of plasma enriched with thrombocytes after its incubation with an aggregation inductor.
Adenozinediphosphoric acid (ADP) was selected as an aggregation inductor, which in fact is an aggregation generator. Use was made of a sample (registration number 885) of the Sigma Diagnostics Company (USA) in final concentration of 10^−5 M.
The experiments were carried out on male rabbits of the “Chinchilla” breed having a mass of 2.7±0.3 kg. 18-24 hours prior to the experiment they were deprived of feed while preserving free access to water.
To obtain plasma enriched with thrombocytes, blood was taken from a cut of a marginal vein of the rabbit ear, the sample was stabilized with 3.8% of sodium citrate solution in a ratio of 9:1 and centrifuged at 200 g (1000 rev/min) for 10 minutes. The top supernatant layer enriched with thrombocytes was transferred by an automatic dropper into a silicone test tube and kept at 37° C. The plasma enriched with thrombocytes contained, on the average, […]. If this content exceeded the specified 3×10^8 blood platelets in 1 liter, this sample was diluted to the necessary concentration with plasma deprived of thrombocytes, which was obtained by centrifuging blood at 650 g during 10 minutes.
The measurements of the optical density of the samples were made on two-channel aggregometer of the “Chronolog” Company (USA). A flask containing 490 mkl of plasma rich with thrombocytes was placed in a device, into which a magnetic agitator covered with Teflon was lowered. The index of maximum amplitude of aggregation (MA) in percent of a fall of the plasma optical density under effect of the aggregation inductor was recorded. The control index MA of plasma was compared with the MA of plasma incubated for 3 minutes with different concentrations of the compounds: from 10^−3 to 10^−7 in vitro experiments or with plasma obtained 15, 30, 60 and 120 minutes after intravenous administration of different doses of the compounds in vivo experiments.
The process of aggregation of thrombocytes was recorded with the help of a computer; on the monitor screen the there were depicted curves reflecting changes of the optical density of the plasma enriched which was taken as a standard 100% compared to the optical density of the non-thrombocyte plasma taken for 0% content of thrombocytes.
Under in vitro conditions a flask was filled with blood plasma enriched with thrombocytes, to which an aggregation inductor ADP was added at a concentration of 10^−5 M, incubated for 3 minutes, and then the compounds according to the invention were introduced directly into the flask. Their action by aggregation of thrombocytes was studied after 3-minute incubation in a wide range of concentrations from 10^−3 to 10^−7 M to minimum concentration of 10^−7M not inducing no effect of suppressing the aggregation.

plasma hemostasis [1] = assay: Partial activated thromboplastin time (PATT) after intravenous administration; format: in vivo, rabbit; settings: for effect on the PATT: doses 15.0, 30.0, 60.0 mg/kg
Procedure: (§1) The static parameters of the blood and plasma coagulation (partial activated thromboplastin time, thrombin time, maximum coagulation activity (test for auto coagulation) were determined using the Behnk Electronic coagulometer (Germany). The operating principle of this instrument is based on the fact that the formed blood clot breaks the contacts of the pulse counter in the flask-pin circuit, said pin permanently oscillating in a vertical plane. The moment of formation of the clot is registered by stopping the stop watch hand.
(§2) The measurements were effected at a constant temperature of 37° C. maintained by a temperature control unit.

plasma hemostasis [2] = assay: Autocoagulation test (coagulating activity A) after intravenous administration; format: in vivo, rabbit; settings: for effect on the coagulation activity according to the autocoagulation test: doses 15.0, 30.0, 60.0 mg/kg
Procedure: The investigations were performed on 72 rabbits of the “Chinchilla” breed with a mass of 2.5±0.3 kg, who were administered which solutions of compounds 2, 15, 21, 37 in doses of 15, 30 and 60 mg/kg intravenously. The experiments included the thrombin-test (series No. 7300) and the coagulability-test (series No. 5000) purchased from the scientific-and-production association (SPA) “Renam”, thromboplastin (series No. 240600) and calcium chloride purchased from the SPA “MedioLab”
as §1, §2
Compounds 2, 15, 21, 37 according to the invention at a concentration of 15, 30 and 60 mg/kg were intravenously administered to the above experimental animals and their blood samples were taken off 15, 30, 60 and 120 minutes after the administration.
Added to 0.2 ml of plasma obtained by centrifuging citrate blood at 1500 rev/min within 10 minutes was a glycosylate-calcium mixture (2.0 ml 0.222% CaCl2+0.1 ml of investigated citrate blood) 4, 6, 8, 10 minutes after the preparation of this mixture and the time of coagulation in the sample was determined.
The obtained results in seconds were translated in factors of coagulating activity A in percent, which specify the state of both the coagulating and anticoagulating parts of the blood coagulating system. The results of the experiments are given in Table 7. • The effect of the compounds according to the invention on the values of coagulating activity A by the data of autocoagulation test with intravenous administration of the compounds to the rabbits

[3] = 15.0 mg/kg intravenously, after 15 minutes, control 37.0 ± 0.2
[4] = 15.0 mg/kg intravenously, after 30 minutes, control 37.0 ± 0.2
[5] = 15.0 mg/kg intravenously, after 60 minutes, control 37.0 ± 0.2
[6] = 15.0 mg/kg intravenously, after 120 minutes, control 37.0 ± 0.2
[7] = 30.0 mg/kg intravenously, after 15 minutes, control 33.3 ± 0.8
[8] = 30.0 mg/kg intravenously, after 30 minutes, control 33.3 ± 0.8
[9] = 30.0 mg/kg intravenously, after 60 minutes, control 33.3 ± 0.8
[10] = 30.0 mg/kg intravenously, after 120 minutes, control 33.3 ± 0.8
[11] = 60.0 mg/kg intravenously, after 15 minutes, control 32.5 ± 0.3
[12] = 60.0 mg/kg intravenously, after 30 minutes, control 32.5 ± 0.3
[13] = 60.0 mg/kg intravenously, after 60 minutes, control 32.5 ± 0.3
[14] = 60.0 mg/kg intravenously, after 120 minutes, control 32.5 ± 0.3
[15] = 15.0 mg/kg intravenously, after 15 minutes, control 85.6
[16] = 15.0 mg/kg intravenously, after 30 minutes, control 85.6
[17] = 15.0 mg/kg intravenously, after 60 minutes, control 85.6
[18] = 15.0 mg/kg intravenously, after 120 minutes, control 85.6
[19] = 30.0 mg/kg intravenously, after 15 minutes, control 70.0
[20] = 30.0 mg/kg intravenously, after 30 minutes, control 70.0
[21] = 30.0 mg/kg intravenously, after 60 minutes, control 70.0
[22] = 30.0 mg/kg intravenously, after 120 minutes, control 70.0
[23] = 60.0 mg/kg intravenously, after 15 minutes, control 65.9
[24] = 60.0 mg/kg intravenously, after 30 minutes, control 65.9
[25] = 60.0 mg/kg intravenously, after 60 minutes, control 65.9
[26] = 60.0 mg/kg intravenously, after 120 minutes, control 65.9

SMILES | MA - fall of optical density of plasma, % to the standard (thrombocytes; 10^−3 M, control 60.8 ± 3.4) | MA - fall of optical density of plasma, % to the standard (thrombocytes; 10^−4 M, control 60.0 ± 2.1) | MA - fall of optical density of plasma, % to the standard (thrombocytes; 10^−5 M, control 52.5 ± 2.1) | MA - drop of optical density, % (thrombocytes; 10^−6 M, control 52.8 ± 1.8) | MA - drop of optical density, % (thrombocytes; 10^−7 M, control 51.5 ± 2.1) | PATT, T (plasma hemostasis [1]; [3]) | PATT, T (plasma hemostasis [1]; [4]) | PATT, T (plasma hemostasis [1]; [5]) | PATT, T (plasma hemostasis [1]; [6]) | PATT, T (plasma hemostasis [1]; [7]) | PATT, T (plasma hemostasis [1]; [8]) | PATT, T (plasma hemostasis [1]; [9]) | PATT, T (plasma hemostasis [1]; [10]) | PATT, T (plasma hemostasis [1]; [11]) | PATT, T (plasma hemostasis [1]; [12]) | PATT, T (plasma hemostasis [1]; [13]) | PATT, T (plasma hemostasis [1]; [14]) | effect on the PATT (plasma hemostasis [1]) | coagulating activity A (autocoagulation test) (plasma hemostasis [2]; [15]) | coagulating activity A (autocoagulation test) (plasma hemostasis [2]; [16]) | further results
O=c1[nH][nH]c(=O)c2nccnc12.[Li] [Compound 25, lithium salt of pyrazine[2,3-d]-6H-pyridazine-5,8-dione] | 48.2 ± 2.9 % | 48.6 ± 2.0 % | 43.4 ± 3.2 % | 50.3 ± 2.1% | 50.1 ± 3.0% |  |  |  |  |  |  |  |  |  |  |  |  |  |  |  | 
O=c1[nH][nH]c(=O)c2ncccc12.[Li] [Compound 6, lithium salt of pyrido[2,3-d]-6H-pyridazine-5,8-dione] | 50.0 ± 1.9 % | 53.3 ± 2.2 % | 47.4 ± 2.0 % | 51.2 ± 3.2% | 50.7 ± 3.2% |  |  |  |  |  |  |  |  |  |  |  |  |  |  |  | 
O=c1[nH][nH]c(=O)c2c(Br)ncnc12.[K] [Compound 37, potassium salt of 4-bromine-pyrimido[4,5-D]-6H-pyridazine-5,8-dione] | 46.9 ± 2.7 % | 47.1 ± 2.0 % | 40.6 ± 1.7 % | 48.1 ± 2.9% | 50.1 ± 1.0% | 37.0 ± 0.2 s | 37.1 ± 0.1 s | 37.0 ± 0.2 s | 36.9 ± 0.1 s | 33.1 ± 0.1 s | 33.3 ± 0.1 s | 33.3 ± 0.2 s | 33.0 ± 0.4 s | 32.5 ± 0.1 s | 32.3 ± 0.2 s | 32.4 ± 0.1 s | 32.6 ± 0.3 s | do not affect the PATT | 82.1% | 102.8% | coagulating activity A (autocoagulation test) (plasma hemostasis [2]; [17]): 88.7%; coagulating activity A (autocoagulation test) (plasma hemostasis [2]; [18]): 100.6%; coagulating activity A (autocoagulation test) (plasma hemostasis [2]; [19]): 99.8%; coagulating activity A (autocoagulation test) (plasma hemostasis [2]; [20]): 68.3%; coagulating activity A (autocoagulation test) (plasma hemostasis [2]; [21]): 105.8%; coagulating activity A (autocoagulation test) (plasma hemostasis [2]; [22]): 70.4%; coagulating activity A (autocoagulation test) (plasma hemostasis [2]; [23]): 74.3%; coagulating activity A (autocoagulation test) (plasma hemostasis [2]; [24]): 63.0%; coagulating activity A (autocoagulation test) (plasma hemostasis [2]; [25]): 64.2%; coagulating activity A (autocoagulation test) (plasma hemostasis [2]; [26]): 66.3%; effect on the coagulation activity according to the autocoagulation test (plasma hemostasis [2]): have no effect on the coagulation activity
Nc1cnc2c(=O)n([C@@H]3O[C@H](CO)[C@@H](O)[C@H]3O)[nH]c(=O)c2n1.[Na] [Compound 21, sodium salt of 3-amino-7-(β-D-ribofuranosile)pyrazine[2,3-d]-6H-pyridazine-5,8-dione] | 47.1 ± 3.0 % | 49.2 ± 2.1 % | 41.8 ± 2.4 % | 49.6 ± 1.7% | 49.7 ± 2.1% | 37.1 ± 0.1 s | 37.2 ± 0.1 s | 36.9 ± 0.1 s | 37.0 ± 0.2 s | 32.8 ± 0.4 s | 32.0 ± 0.1 s | 32.2 ± 0.1 s | 32.1 ± 0.1 s | 32.0 ± 0.4 s | 32.1 ± 0.2 s | 32.0 ± 0.1 s | 32.3 ± 0.2 s | do not affect the PATT | 81.4% | 101.3% | coagulating activity A (autocoagulation test) (plasma hemostasis [2]; [17]): 86.5%; coagulating activity A (autocoagulation test) (plasma hemostasis [2]; [18]): 97.4%; coagulating activity A (autocoagulation test) (plasma hemostasis [2]; [19]): 97.2%; coagulating activity A (autocoagulation test) (plasma hemostasis [2]; [20]): 69.1%; coagulating activity A (autocoagulation test) (plasma hemostasis [2]; [21]): 103.7%; coagulating activity A (autocoagulation test) (plasma hemostasis [2]; [22]): 71.0%; coagulating activity A (autocoagulation test) (plasma hemostasis [2]; [23]): 71.9%; coagulating activity A (autocoagulation test) (plasma hemostasis [2]; [24]): 62.1%; coagulating activity A (autocoagulation test) (plasma hemostasis [2]; [25]): 63.7%; coagulating activity A (autocoagulation test) (plasma hemostasis [2]; [26]): 66.2%; effect on the coagulation activity according to the autocoagulation test (plasma hemostasis [2]): have no effect on the coagulation activity
Nc1ncc2c(=O)[nH][nH]c(=O)c2n1 [Compound 36, 2-amino-pyrimido[4,5-d]-6H-pyridazine-5,8-dione] | 45.8 ± 2.3 % | 46.9 ± 2.4 % | 40.1 ± 2.0 % | 49.3 ± 2.6% | 49.7 ± 1.8% |  |  |  |  |  |  |  |  |  |  |  |  |  |  |  | 
